Several values for one entry are separate records, joined by “and”; a condition that tells them apart may be missing. Equal values may be shown once. After the bases stand the sugars from the 5' end (letter, count) and the backbone: PS all phosphorothioate, else s phosphorothioate and o phosphodiester by linkage. Methylation of C is not given here. e = 2'-O-(2-methoxyethyl) (MOE); k = constrained ethyl (cEt); d = 2'-deoxy (DNA)
Target: IRF4
Conditions: ASO

Sequence | target mRNA inhibition (SK-MEL-28, 4 µM) | target mRNA inhibition (MM.1R, 1 µM) | further results
ACCAATGGCAGCACCG (sugars k3 d10 k3, PS) | 61% | – | –
ACCACAAGCAGTGATG (sugars k3 d10 k3, PS) | – | 1% | –
ACCACGCCCCTCTCCA (sugars k3 d10 k3, PS) | 9% | – | –
ACCCACATAACTCAGG (sugars k3 d10 k3, PS) | 31% | – | –
ACCCACATCACTGTCT (sugars k3 d10 k3, PS) | 15% | – | –
ACCGAACACACCAGGT (sugars k3 d10 k3, PS) | – | -14% | –
ACCTACAAAATGCCTC (sugars k3 d10 k3, PS) | 42% | – | –
ACCTACCTGCCCTTGG (sugars k3 d10 k3, PS) | 28% | – | –
ACCTCAGTTTGTGAAG (sugars k3 d9 k3 e1, PS) | – | 10% | –
ACCTCAGTTTGTGAAG (sugars kddddddddddkekek, PS) | – | 18% | –
ACCTCAGTTTGTGAAG (sugars kdddddddddkekeke, PS) | – | 16% | –
ACCTGGCAACCATTTT (sugars k3 d10 k3, PS) | 4% | – | –
ACGAACGCGCAAAACC (sugars k3 d10 k3, PS) | 6% | – | –
ACGACAGCTGCGGAGC (sugars k3 d10 k3, PS) | 27% | – | –
ACGAGGTAAATCTTCA (sugars k3 d10 k3, PS) | 61% | – | –
ACGCAATGGCAAAAGA (sugars k3 d10 k3, PS) | 11% | – | –
ACGCACCATTCAGACA (sugars k3 d10 k3, PS) | -2% | – | –
ACGCACGGAGAGGGCG (sugars k3 d10 k3, PS) | 1% | – | –
ACGCAGAGCCAGTAGG (sugars k3 d10 k3, PS) | 50% | – | –
ACGGAAGTTTACACTG (sugars e1 k2 d9 k2 e2, PS) | – | 17% | –
ACGGACGAACGCGCAA (sugars k3 d10 k3, PS) | – | -7% | –
ACGGACTGGAACATTG (sugars k3 d10 k3, PS) | – | 38% | –
ACGGGAATTTCCATTG (sugars k3 d10 k3, PS) | 67% | – | target mRNA inhibition (SK-MEL-28, 0.185 µM): 11% and 5% and 1%; target mRNA inhibition (SK-MEL-28, 5 µM): 57% and 61% and 82%; target mRNA inhibition (SK-MEL-28, 15 µM): 83% and 79% and 94%
ACGTGTGCTTGCCAAG (sugars kkdddddddddkekek, PS) | – | 49% and 44% | –
ACTAAATTCTAGTTTG (sugars k3 d10 k3, PS) | 0% | – | –

Sequence | target mRNA inhibition (SK-MEL-28, 4 µM) | target mRNA inhibition (MM.1R, 1 µM) | further results
ACTAACTGGCTTCCAG (sugars k3 d10 k3, PS) | 31% | – | –
ACTAATTCCATAGAGC (sugars k3 d10 k3, PS) | 79% | -17% | target mRNA inhibition (MM.1R, 0.0625 µM): -18%; target mRNA inhibition (MM.1R, 0.074 µM): -12%; target mRNA inhibition (MM.1R, 0.222 µM): -13%; target mRNA inhibition (MM.1R, 0.25 µM): -12%; target mRNA inhibition (MM.1R, 0.666 µM): -10%; target mRNA inhibition (MM.1R, 2 µM): -4%; target mRNA inhibition (MM.1R, 4 µM): -6%
ACTAGATTGTAGGACA (sugars k3 d10 k3, PS) | -9% | – | –
ACTAGCAGGGCACGCT (sugars k3 d10 k3, PS) | 38% | – | –
ACTCAGCAAGTGTCTT (sugars k3 d10 k3, PS) | 47% | – | –
ACTGAGAGTGCGAGGT (sugars k3 d10 k3, PS) | -20% | – | –
ACTGAGATATCCTGCA (sugars k3 d10 k3, PS) | 19% | – | –
ACTGAGTACAAACTAA (sugars k3 d10 k3, PS) | 32% | – | –
ACTGCTGTGTGTCAAA (sugars k4 d8 k4, PS) | 19% | – | –
ACTGCTTGAGGTTTTC (sugars kkdddddddddekeke, PS) | – | 40% | –
ACTGGATATGTGGTGT (sugars k3 d10 k3, PS) | – | 10% | –
ACTGGCATCGAGACGG (sugars k3 d10 k3, PS) | 79% | – | –
ACTGTAAGGGCTGCTC (sugars k3 d10 k3, PS) | 69% | – | –
ACTGTTACCGATGCTT (sugars k2 d9 e3 k2, PS) | – | 27% and 34% | –
ACTGTTACCGATGCTT (sugars kkddddddddddkeke, PS) | – | 30% and 48% | –
ACTGTTACCGATGCTT (sugars kkdddddddddkekek, PS) | – | 30% and 18% | –
ACTTAAGCAAGTGGAG (sugars k3 d10 k3, PS) | 63% | – | –
ACTTAAGCTAAACTCC (sugars k3 d10 k3, PS) | 21% | – | –
ACTTACACCCAGAAGT (sugars k3 d10 k3, PS) | -10% | – | –
ACTTACAGGACTATTT (sugars k3 d10 k3, PS) | 16% | – | –
ACTTTGTACGGGTCTG (sugars k3 d10 k3, PS) | 39% | – | –
ACTTTTAGAGAGGAGA (sugars k2 d9 e3 k2, PS) | – | 36% | –
ACTTTTAGAGAGGAGA (sugars kddddddddddkekek, PS) | – | 32% | –
ACTTTTAGAGAGGAGA (sugars kkkdddddddddkeke, PS) | – | 41% | –
AGAAAACTCTAACCCT (sugars k3 d10 k3, PS) | 25% | – | –

Sequence | target mRNA inhibition (SK-MEL-28, 4 µM) | target mRNA inhibition (MM.1R, 1 µM) | further results
AGAAGCACTGGCATCG (sugars k3 d10 k3, PS) | 37% | – | –
AGAAGCACTGGCATTG (sugars k3 d10 k3, PS) | 45% | – | –
AGACAAGTGCCCATCC (sugars k3 d10 k3, PS) | – | 1% | –
AGACAAGTGCTAGGAT (sugars k3 d10 k3, PS) | 56% | – | –
AGACAGATGACATGCT (sugars k3 d10 k3, PS) | 50% | – | –
AGACATTACTAGATTG (sugars k3 d10 k3, PS) | 66% | – | –
AGACCAATTTATGCCA (sugars k3 d10 k3, PS) | – | 7% | –
AGAGCCCCTACCTTTT (sugars k3 d10 k3, PS) | – | -7% | –
AGATAACATGAGAGTG (sugars k3 d10 k3, PS) | 41% | – | –
AGATAGGAAGCACTGG (sugars k3 d10 k3, PS) | 46% | – | –
AGATAGTTAAGTACTT (sugars k3 d10 k3, PS) | 11% | – | –
AGATGTAAAGATAGGA (sugars k3 d10 k3, PS) | 54% | – | –
AGCAAGTCGGTCCACA (sugars k3 d10 k3, PS) | 54% | – | –
AGCAAGTGTCTAAAGT (sugars k3 d10 k3, PS) | 62% | 22% | target mRNA inhibition (MM.1R, 0.0625 µM): -1%; target mRNA inhibition (MM.1R, 0.074 µM): -8%; target mRNA inhibition (MM.1R, 0.222 µM): 6%; target mRNA inhibition (MM.1R, 0.25 µM): 12%; target mRNA inhibition (MM.1R, 0.666 µM): 11%; target mRNA inhibition (MM.1R, 2 µM): 33%; target mRNA inhibition (MM.1R, 4 µM): 51%
AGCAATTAGCTCTTCT (sugars k3 d10 k3, PS) | – | 11% | –
AGCAGAACGAGGTAAA (sugars k3 d10 k3, PS) | 70% | – | –
AGCAGTGATGTCAGGT (sugars kddddddddddkekek, PS) | – | 77% and 67% and 68% | target mRNA inhibition (MM.1R, 0.0625 µM): 37%; target mRNA inhibition (MM.1R, 0.25 µM): 50%; target mRNA inhibition (MM.1R, 4 µM): 84%
AGCAGTGATGTCAGGT (sugars kdddddddddkekeke, PS) | – | 26% and 36% | –
AGCAGTGATGTCAGGT (sugars kkddddddddddkeke, PS) | – | 67% and 64% | –
AGCAGTGATGTCAGGT (sugars kkdddddddddkdkdk, PS) | – | 55% and 48% | –
AGCATAAAAGGTTCCT (sugars k3 d10 k3, PS) | 45% | – | –
AGCATATTCCAACAGG (sugars k3 d10 k3, PS) | 69% | 18% | target mRNA inhibition (MM.1R, 0.0625 µM): -1%; target mRNA inhibition (MM.1R, 0.074 µM): -8%; target mRNA inhibition (MM.1R, 0.222 µM): -6%; target mRNA inhibition (MM.1R, 0.25 µM): 6%; target mRNA inhibition (MM.1R, 0.666 µM): 19%; target mRNA inhibition (MM.1R, 2 µM): 32%; target mRNA inhibition (MM.1R, 4 µM): 58%
AGCCACTATGGTAGGA (sugars k3 d10 k3, PS) | 43% | – | –
AGCCAGCCAGAGGTTC (sugars k3 d10 k3, PS) | 30% | – | –
AGCCAGTGGCTGAAAC (sugars k3 d10 k3, PS) | 21% | – | –

Sequence | target mRNA inhibition (SK-MEL-28, 4 µM) | target mRNA inhibition (MM.1R, 1 µM) | further results
AGCCCCTCAGGAAATG (sugars k3 d10 k3, PS) | 24% | – | –
AGCCGCCGGCACAGGC (sugars k3 d10 k3, PS) | 1% | – | –
AGCCTAGAGGTGCCTT (sugars k3 d10 k3, PS) | 41% | – | –
AGCCTTCACGCACCAT (sugars k3 d10 k3, PS) | 30% | – | –
AGCGAGTCAGACAGTG (sugars k3 d10 k3, PS) | 16% | – | –
AGCTAAACTCCTAAGT (sugars k3 d10 k3, PS) | 15% | – | –
AGCTAATGAGAGCTTC (sugars k3 d10 k3, PS) | 17% | – | –
AGCTACAAAGAGCACT (sugars k3 d10 k3, PS) | 33% | – | –
AGCTGAGGGCAGCGGT (sugars k3 d10 k3, PS) | -7% | – | –
AGCTGCGGAGCCTGGG (sugars k3 d10 k3, PS) | – | 31% | –
AGCTTGATAAAGGCTG (sugars kdddddddddkekeke, PS) | – | 2% | –
AGCTTGATAAAGGCTG (sugars kkddddddddddkeke, PS) | – | 1% | –
AGCTTGATAAAGGCTG (sugars kkdddddddddkdkdk, PS) | – | -3% | –
AGCTTGATAAAGGCTG (sugars kkdddddddddkekek, PS) | – | 16% | –
AGCTTGATAAAGGCTG (sugars kkkddddddddkekek, PS) | – | -8% | –
AGGAACTAGTCGACAG (sugars k3 d10 k3, PS) | 40% | – | –
AGGAAGCACTGGCATT (sugars k3 d10 k3, PS) | 59% | – | –
AGGAAGCCGTTCCTTT (sugars k3 d10 k3, PS) | 42% | – | –
AGGAAGTTTACTAACT (sugars k3 d10 k3, PS) | 58% | – | –
AGGAATGAGCACTCTT (sugars k3 d10 k3, PS) | – | 7% | –
AGGAGAGGCTGAGATA (sugars k3 d10 k3, PS) | 21% | – | –
AGGCACATCAATGTTT (sugars kkdddddddddkdkdk, PS) | – | 4% and 19% | –

Reference: the OligoGym collection
